Test results as given in patent publication US5256820A, “1-alkyl-2-acyl-1,2-disulfonylhydrazines” (Yale University, priority 1991, dated 1993).
“Also recorded” adds a separate entry of the source. Values belong to the compound of their own block, whether it stands above or below them.

Columns and labels:
L1210 leukemia = assay: Survival time of mice bearing the L1210 leukemia; type: in vivo, mouse; settings: for % 60-day survivors / % T/C (average survival time of treated/control mice × 100) / AvΔ wt % (average percent change in body weight from onset to termination of therapy): at opt. effective daily dose; for % T/C (average survival time of treated/control mice × 100): 60-day survivors not included; for AvΔ wt % (average percent change in body weight from onset to termination of therapy): vehicle control +2.0; for Opt. effective daily dose: once daily for six consecutive days, beginning 24 h after tumor implantation, L1210 mice; for antineoplastic activity / curative effect (in words): L1210 leukemia mice
Procedure: The antineoplastic activity of each of the compounds of Examples 1-6 was assessed by measuring their effects on the survival time of mice bearing the L1210 leukemia by the method generally disclosed in Shyam et al. J. Med. Chem. (1990) 33:2259-2264. The compounds were administered once daily for six consecutive days. Percent change in body weight from onset to termination of therapy was recorded. The results are summarized in Table I. All of the compounds tested produced at least partial 60-day "cures" of mice bearing the L1210 leukemia. […] This compound also produced 80-90% "cures" at 10 and 15 mg/kg×6.
Effects of 2-Acyl-1,2-bis(methylsulfonyl)-1-
^a Administered once daily for six consecutive days, beginning 24 h
after tumor implantation, with 5-10 mice being used per group.
^b Average day of death for untreated tumorbearing mice was 8.4.
^c Average percent change in body weight from onset to termination of
therapy. Average percent change in body weight for vehicletreated control
^d % T/C = average survival time of treated/control mice × 100;
60day survivors are listed separately and are not included in this

[1] = Hydrolysis in the presence of bovine serum; type: in vitro ADME; settings: for Rate of hydrolysis: 200 μM solution
Excerpt: (§1) To verify that the prodrugs would be converted to alkylating species in vivo, we performed studies on the kinetics of hydrolysis of these compounds in the presence of serum and also in the presence of proteinase K (a protease of low specificity). […] Serum from different sources, i.e., mouse, bovine and man, were not equivalent in their activities or in their rank order of substrate specificity. […] Table IV reports the effects of bovine serum concentrates on hydrolysis of two compounds--the compounds of Example 1 and Example 6.
Effects of Bovine Serum Concentration on the
^a Expressed nmol/ml/min for a 200 μM solution.

[2] = Hydrolysis in the presence of serum from different sources (mouse, bovine, man); type: in vitro ADME; settings: bovine and man, in all cases
Excerpt: as §1

Water solubility = type: physicochemical
[3] = Alkylation of 4-(4'-nitrobenzyl)pyridine in presence and absence of bovine serum; settings: 4 mM compound, 37° C., 1 h, 100 mM phosphate buffer pH 7.4
Procedure: Serum was capable of stimulating the alkylation of the model nucleophile, 4-(4'-nitrobenzyl)pyridine, by 2-acyl-1,2-bis(methylsulfonyl)-1-(2-chloroethyl)hydrazines, providing direct evidence for the serum-dependent generation of the alkylating species from these prodrugs (Table V).
Relative Alkylation of 4-(4'-Nitrobenzyl)pyridine
(NBP) by 4 mM 2-Acetyl-1,2-bis(methylsulfonyl)-1-(2-
chloroethyl)hydrazine at 37° C. for 1 h in 100 mM Phosphate
Buffer (pH 7.4) in the Presence and Absence of 20% Bovine

[4] = Spontaneous decomposition (hydrolysis) in aqueous phosphate buffer, phenol red proton release assay; type: physicochemical
Procedure: The compounds of the invention are relatively stable. As a measure of their stability, spontaneous decomposition in aqueous media was measured in phosphate buffer, pH 7.4 (37° C.). Hydrolysis at N-1 would result in the generation of a carboxylic acid and the corresponding 1,2-bis(methylsulfonyl)-1-(2-chloroethyl)hydrazine. Since both of these compounds are ionized under these conditions, the release of protons can be used to follow the decomposition of these and related compounds. The release of protons can be assayed by following the decrease in absorbance at 560 nm of a weakly buffered (1 mM potassium phosphate) phenol red (21 mg/L) solution. The assay has been calibrated using HC1 standards. […] The spontaneous hydrolysis of the compound of Example 1 at pH 7.4, 37° C. in 1 mM phosphate buffer occurs at approximately 0.7% of the rate of the corresponding prior art compounds [1,2,2-tris(methylsulfonyl)-1-(2-chloroethyl)hydrazine] under the same conditions. The rate of hydrolysis was highly sensitive to changes in temperature and pH (Tables II and III). […] At pH 7.4, 37° C., a 200 μM solution of the compound of Example 1 hydrolyzes at the rate of approximately 0.6% per hour. […] Therefore, stable aqueous solutions of this agent can be formulated. The other analogs synthesized according to Examples 2-6 also hydrolyzed at relatively slow rates.

[5] = Stewart and Evans (1989); cited from earlier work
[6] = Shyam et al. J. Med. Chem. (1990) 33:2259-2264; cited from earlier work
[7] = tested on: GST (glutathione-S-transferase), equine liver enzyme; assay: GST-catalyzed GSH activation of prodrug; type: biochemical; settings: 13.5 units/ml equine liver GST
Excerpt: Therefore, tumors resistant to conventional chloroethylating agents because of the protective effect conferred by high levels of intracellular thiols, may be more sensitive to 2-acyl-1,2-bis(methylsulfonyl)-1-methyl (or 2-chloroethyl)hydrazines. […] Although elevation of GST levels has been associated with increased resistance to a variety of alkylating agents, such a change is expected to increase sensitivity to the thiol-activated prodrugs.

[8] = Prodrug activation by GSH, methanol generation determined using alcohol oxidase
Procedure: Our belief is confirmed by the following experiment in which we incubated a solution of 2-benzoyl-1,2-bis(methylsulfonyl)-1-methylhydrazine (R=C6 H5) in phosphate buffer (pH 7.4) at 37° C. in the presence and absence of GSH. The amount of methanol generated in 10 min, determined using alcohol oxidase by methodology described by Penketh et al. (1990) 33:730-732, was used as a measure of activation of the prodrug. In the presence of 1 mM GSH, the amount of methanol generated increased approximately 10-fold, relative to that occurring in phosphate buffer alone. […] In the case of the 1-(2-chloroethyl) derivative (the compound of Example 6), 22although precise quantitation was difficult due to the limitations of the assay, the compound of Example 6 gave a 6- to 7-fold greater amount of alkylated product when reacted with the nucleophile 4-(4'-nitrobenyl)pyridine in the presence of 5 mM GSH for 30 min at 37° C. than in its absence.

Structure (SMILES): CC(C)(C)C(=O)N(N(CCCl)S(C)(=O)=O)S(C)(=O)=O [Example 4, 1,2-Bis(methylsulfonyl)-1-(2-chloroethyl)-2-pivaloylhydrazine]
- % 60-day survivors (L1210 leukemia): 60%
- % T/C (average survival time of treated/control mice × 100) (L1210 leukemia): 302%
- AvΔ wt % (average percent change in body weight from onset to termination of therapy) (L1210 leukemia): 0.0%
- Opt. effective daily dose (L1210 leukemia): 20 mg/kg

Structure (SMILES): CS(=O)(=O)N(CCCl)N(C(=O)c1ccccc1)S(C)(=O)=O [Example 6, 1-Benzoyl-1,2-bis(methylsulfonyl)-2-(2-chloroethyl)hydrazine]
- % 60-day survivors (L1210 leukemia): 20%
- % T/C (average survival time of treated/control mice × 100) (L1210 leukemia): 160%
- AvΔ wt % (average percent change in body weight from onset to termination of therapy) (L1210 leukemia): -7.7%
- Opt. effective daily dose (L1210 leukemia): 20 mg/kg
- Rate of hydrolysis ([1]; 0% v/v bovine serum): 0.06 nmol/mL/min
- Rate of hydrolysis ([1]; 5% v/v bovine serum): 0.22 nmol/mL/min
- Rate of hydrolysis ([1]; 10% v/v bovine serum): 0.52 nmol/mL/min
- Rate of hydrolysis ([1]; 20% v/v bovine serum): 1.31 nmol/mL/min
- sensitivity to serum hydrolysis (in words) [2]: two most sensitive compounds

Structure (SMILES): CC(=O)N(N(CCCl)S(C)(=O)=O)S(C)(=O)=O [Example 1, 1-Acetyl-1,2-bis(methylsulfonyl)-2-(2-chloroethyl)hydrazine]
- 60-day "cures" (L1210 leukemia; 7.5 mg/kg, six daily intraperitoneal doses): 80%
- antineoplastic activity / curative effect (in words) (L1210 leukemia): highly active against the L1210 leukemia; also recorded: produced their curative effects at relatively low dosage levels
- % 60-day survivors (L1210 leukemia): 80%
- % T/C (average survival time of treated/control mice × 100) (L1210 leukemia): 341%
- AvΔ wt % (average percent change in body weight from onset to termination of therapy) (L1210 leukemia): +1.0%
- Opt. effective daily dose (L1210 leukemia): 7.5 mg/kg
- water solubility (in words) (Water solubility): most water-soluble analogs of this class
- Relative alkylation of NBP ([3]; bovine serum (20%)): 5.7
- Relative alkylation of NBP ([3]; no serum): 1.0
- Relative rate of hydrolysis ([4]; 23 °C (37 °C = 1.00)): 0.21
- Relative rate of hydrolysis ([4]; 30 °C (37 °C = 1.00)): 0.57
- Relative rate of hydrolysis ([4]; 32 °C (37 °C = 1.00)): 0.72
- Relative rate of hydrolysis ([4]; 37 °C (reference, 1.00)): 1.00
- increase of hydrolysis rate with pH ([4]; for every 0.2 unit rise in pH, pH 7.4-7.8 range): approximately 50%
- change of hydrolysis rate with temperature ([4]; for every 5° C. rise in temperature): double
- Relative rate of hydrolysis ([4]; pH 7.4 (pH 7.8 = 1.00)): 0.48
- rate of spontaneous hydrolysis relative to prior art compound ([4]; pH 7.4, 37° C., 1 mM phosphate buffer, vs 1,2,2-tris(methylsulfonyl)-1-(2-chloroethyl)hydrazine): approximately 0.7%
- Relative rate of hydrolysis ([4]; pH 7.5 (pH 7.8 = 1.00)): 0.57
- Relative rate of hydrolysis ([4]; pH 7.6 (pH 7.8 = 1.00)): 0.70
- Relative rate of hydrolysis ([4]; pH 7.8 (reference, 1.00)): 1.00
- degraded at 1 h, 200 µM ([4]; phosphate buffer, 200 μM solution, pH 7.4, 37° C., read-out: rate of hydrolysis): ~0.6%
- Rate of hydrolysis ([1]; 0% v/v bovine serum): 0.02 nmol/mL/min
- Rate of hydrolysis ([1]; 5% v/v bovine serum): 0.055 nmol/mL/min
- Rate of hydrolysis ([1]; 10% v/v bovine serum): 0.10 nmol/mL/min
- Rate of hydrolysis ([1]; 20% v/v bovine serum): 0.26 nmol/mL/min
- decrease in ability of bovine serum to hydrolyze the compound after boiling ([1]; boiled dilute solutions of bovine serum): > 75%

Structure (SMILES): CCC(=O)N(N(CCCl)S(C)(=O)=O)S(C)(=O)=O [Example 2, 1,2-Bis(methylsulfonyl)-1-(2-chloroethyl)-2-propionylhydrazine]
- "cures" of mice bearing the L1210 leukemia (L1210 leukemia; 5 mg/kg×6): 60%
- "cures" of mice bearing the L1210 leukemia (L1210 leukemia; 10 and 15 mg/kg×6): 80-90%
- antineoplastic activity / curative effect (in words) (L1210 leukemia): appeared to be the most potent; also recorded: produced their curative effects at relatively low dosage levels
- % 60-day survivors (L1210 leukemia): 90%
- % T/C (average survival time of treated/control mice × 100) (L1210 leukemia): 217%
- AvΔ wt % (average percent change in body weight from onset to termination of therapy) (L1210 leukemia): -6.4%
- Opt. effective daily dose (L1210 leukemia): 10 mg/kg
- water solubility (in words) (Water solubility): most water-soluble analogs of this class

Structure (SMILES): CCCCS(=N)(=O)CCC(N)C(=O)O (stereo not drawn) [Buthionine sulfoximine]
- reversal of resistance to alkylating agents (in words) [5]: reverse this resistance by reducing cellular GSH levels

Structure (SMILES): CS(=O)(=O)N(CCCl)N(S(C)(=O)=O)S(C)(=O)=O [PRIOR ART, 1-(2-chloroethyl)-1,2,2-tris(methylsulfonyl)hydrazine, reference compound]
- % 60-day survivors (L1210 leukemia): 100%
- AvΔ wt % (average percent change in body weight from onset to termination of therapy) (L1210 leukemia): -7.2%
- Opt. effective daily dose (L1210 leukemia): 60 mg/kg
- antineoplastic activity (in words) [6]: displays potent antineoplastic activity

Structure (SMILES): CCCC(=O)N(N(CCCl)S(C)(=O)=O)S(C)(=O)=O [Example 3, 1,2-Bis(methylsulfonyl)-1-(n-butyryl)-2-(2-chloroethyl)hydrazine]
- % 60-day survivors (L1210 leukemia): 20%
- % T/C (average survival time of treated/control mice × 100) (L1210 leukemia): 207%
- AvΔ wt % (average percent change in body weight from onset to termination of therapy) (L1210 leukemia): 0.0%
- Opt. effective daily dose (L1210 leukemia): 10 mg/kg

Structure (SMILES): COCC(=O)N(N(CCCl)S(C)(=O)=O)S(C)(=O)=O [Example 5, 1,2-Bis(methylsulfonyl)-1-(2-chloroethyl)-2-methoxyacetylhydrazine]
- "cures" of tumor-bearing mice (L1210 leukemia; 10 mg/kg×6): 100%
- antineoplastic activity / curative effect (in words) (L1210 leukemia): produced their curative effects at relatively low dosage levels
- % 60-day survivors (L1210 leukemia): 100%
- AvΔ wt % (average percent change in body weight from onset to termination of therapy) (L1210 leukemia): -8.4%
- lethality (L1210 leukemia; higher dose levels examined (above 10 mg/kg×6)): lethal at the higher dose levels examined
- Opt. effective daily dose (L1210 leukemia): 10 mg/kg
- water solubility (in words) (Water solubility): most water-soluble analogs of this class
- sensitivity to serum hydrolysis (in words) [2]: two most sensitive compounds

- effect of GST on GSH activation rate (in words) [7]: doubling the activation rate
- increase in amount of methanol generated relative to phosphate buffer alone ([8]; 1 mM GSH, 10 min, phosphate buffer pH 7.4, 37° C.): approximately 10 fold
Structure (SMILES): CN(N(C(=O)c1ccccc1)S(C)(=O)=O)S(C)(=O)=O [2-benzoyl-1,2-bis(methylsulfonyl)-1-methylhydrazine]
- dependence of rate of activation on GSH concentration (in words) ([8]; GSH): directly proportional to the GSH concentration

Structure (SMILES): CN(N(S(C)(=O)=O)S(C)(=O)=O)S(C)(=O)=O [1-Methyl-1,2,2-tris(methylsulfonyl)hydrazine]
- antineoplastic activity (in words) [6]: also showed antineoplastic activity
- toxicity (in words) [6]: relatively less toxic
